Each block holds one compound with its values, some of them ahead of it.
Columns and labels:
[1] = guinea pigs; cited from earlier work
[2] = in vivo; cited from earlier work
[3] = target: T1, purified bovine liver MTP (Bos taurus, UniProt P55156); experiment: Fluorescence triglyceride (NBD-TG) transfer activity assay of MTP; type: biochemical; conditions: dose-dependent inhibition, FIG. 5A
T1 construct: purified bovine liver MTP; from tissue; host or cells: bovine liver
T1 sequence (P55156 19-887 limits assumed): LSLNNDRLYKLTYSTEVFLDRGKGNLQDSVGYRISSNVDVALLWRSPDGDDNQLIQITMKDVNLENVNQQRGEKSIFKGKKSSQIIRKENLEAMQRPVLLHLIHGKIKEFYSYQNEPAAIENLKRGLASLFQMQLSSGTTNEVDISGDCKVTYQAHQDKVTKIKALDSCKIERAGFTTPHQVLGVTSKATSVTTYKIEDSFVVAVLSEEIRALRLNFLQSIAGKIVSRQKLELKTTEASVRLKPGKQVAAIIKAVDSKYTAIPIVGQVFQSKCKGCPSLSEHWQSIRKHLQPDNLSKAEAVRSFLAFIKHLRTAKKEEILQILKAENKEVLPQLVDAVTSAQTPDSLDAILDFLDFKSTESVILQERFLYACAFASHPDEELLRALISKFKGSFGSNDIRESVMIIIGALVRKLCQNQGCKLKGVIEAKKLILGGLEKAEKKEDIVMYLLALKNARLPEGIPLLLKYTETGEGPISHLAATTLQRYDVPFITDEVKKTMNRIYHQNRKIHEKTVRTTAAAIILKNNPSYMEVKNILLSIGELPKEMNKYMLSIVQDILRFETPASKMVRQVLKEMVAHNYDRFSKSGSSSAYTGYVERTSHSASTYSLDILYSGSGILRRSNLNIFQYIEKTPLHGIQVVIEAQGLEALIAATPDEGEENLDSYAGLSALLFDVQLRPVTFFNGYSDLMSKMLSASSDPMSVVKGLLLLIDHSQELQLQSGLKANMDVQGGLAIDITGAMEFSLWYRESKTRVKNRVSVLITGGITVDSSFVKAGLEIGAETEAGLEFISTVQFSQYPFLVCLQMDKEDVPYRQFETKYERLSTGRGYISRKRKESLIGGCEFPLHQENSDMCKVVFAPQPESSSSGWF
T1 sequence (P05307 21-510 partner): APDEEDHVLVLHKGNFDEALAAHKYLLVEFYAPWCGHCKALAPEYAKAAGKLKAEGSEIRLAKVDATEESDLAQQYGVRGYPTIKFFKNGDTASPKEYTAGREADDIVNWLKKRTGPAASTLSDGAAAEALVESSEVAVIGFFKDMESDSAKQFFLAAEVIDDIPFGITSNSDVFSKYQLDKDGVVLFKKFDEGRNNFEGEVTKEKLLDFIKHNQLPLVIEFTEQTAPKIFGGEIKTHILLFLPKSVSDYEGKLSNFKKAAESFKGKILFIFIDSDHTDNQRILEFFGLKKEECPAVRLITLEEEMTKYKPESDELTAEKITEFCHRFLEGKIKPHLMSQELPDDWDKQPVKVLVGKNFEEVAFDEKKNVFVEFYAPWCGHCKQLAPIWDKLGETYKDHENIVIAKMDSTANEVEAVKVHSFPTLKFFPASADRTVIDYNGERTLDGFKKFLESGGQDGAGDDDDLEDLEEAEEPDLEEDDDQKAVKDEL
Excerpt: (§1) The present invention is directed to very selective, simple, rapid and sensitive fluorescence assays to measure triglyceride (NBD-TG) and phospholipid (NBD-PE) transfer by MTP. These assays have been modified and developed into a “mix and measure” format kit that is stable, user friendly, and consists of only two components: a master mix and purified MTP. The master mix contains all the ingredients necessary for MTP activity. In this assay, MTP transfers fluorescent lipids from donor to acceptor vesicles. Lipid fluorescence in these vesicles is mostly quenched. Unquenched fluorescence (˜0.05% of total fluorescence) is measured as background. During the transfer of fluorescent lipids by MTP, fluorescence is exposed to aqueous phase and detected by the Fluorimeter. These fluorescence measurements represent the amount being transferred. Inclusion of antagonist during these assays reduces increases in fluorescence and represents inhibition of the transfer activity. […]
(§2) Increasing amounts of DMSO (0-1%) had no significant effect on both triglyceride (FIG. 3A) and phospholipid (FIG. 3B) transfer activities of MTP. […] Evaluation of signal-to-noise ratio of assay across the entire 96-well plate: Fluorescence in the blank (n=48) and MTP (n=48) was used to determine the values of noise and signal, respectively. […]

[4] = target: T1, purified bovine liver MTP; experiment: Fluorescence phospholipid (NBD-PE) transfer activity assay of MTP; type: biochemical; conditions: dose-dependent inhibition, FIG. 5B
Excerpt: as §1, §2

SMILES: CCOC(=O)C(COC(=O)Cc1ccc(NC(=O)c2ccccc2-c2ccc(C(F)(F)F)cc2)c(C(=O)N(C)C)c1)(C(=O)OCC)c1ccccc1 [JTT-130]
hepatic triglyceride [1]: without increasing hepatic triglyceride
plasma triglyceride and LDL cholesterol [1]: lower plasma triglyceride and LDL cholesterol

SMILES: COc1cccc(C(=O)Nc2ccc3c(c2)CCN(C(=O)Oc2ccccc2)C3)c1-c1ccc(C(F)(F)F)cc1 [SLx-4090]
plasma lipids [2]: lower plasma lipids

IC50 [3]: 0.33 nM
IC50 [4]: 9.4 nM
SMILES: O=C(Nc1ccc2c(c1)CCN(Cc1ncn[nH]1)C2)c1ccccc1-c1ccc(C(F)(F)F)cc1 [CP-346086]

Source: patent US20120016000A1, “METHOD TO ASSAY PHOSPHOLIPID AND TRIGLYCERIDE TRANSFER ACTIVITY OF MICROSOMAL TRIGLYCERIDE TRANSFER PROTEIN” (priority 2010, published 2012)
